Common to all, as to test: KINOMEscan competition binding
Conditions in all cases: compound 10.0 µM

In assay [1] the test system is EIF2AK4 KD2 (human), Q9P2K8 [S808G].
The test system of assay [2] is EGFR (human), P00533 [G719S].
The test system of assay [3] is KIT (human), P10721 [V559D/T670I].
Assay [4] concerns ABL1 (human), P00519 [M351T].
The test system of assay [5] is KIT (human), P10721 [D816V].
Assay [6] deals with PIK3CA (human), P42336 [E545A].
The test system of assay [7] is FLT3 (human), P36888 [ITD].
The subject of assay [8] is PIK3CA (human), P42336 [C420R].
The test system of assay [9] is PIK3CA (human), P42336 [E545K].
PIK3CA (human), P42336 [E545K], sequence (P42336 whole entry E545K, looked up): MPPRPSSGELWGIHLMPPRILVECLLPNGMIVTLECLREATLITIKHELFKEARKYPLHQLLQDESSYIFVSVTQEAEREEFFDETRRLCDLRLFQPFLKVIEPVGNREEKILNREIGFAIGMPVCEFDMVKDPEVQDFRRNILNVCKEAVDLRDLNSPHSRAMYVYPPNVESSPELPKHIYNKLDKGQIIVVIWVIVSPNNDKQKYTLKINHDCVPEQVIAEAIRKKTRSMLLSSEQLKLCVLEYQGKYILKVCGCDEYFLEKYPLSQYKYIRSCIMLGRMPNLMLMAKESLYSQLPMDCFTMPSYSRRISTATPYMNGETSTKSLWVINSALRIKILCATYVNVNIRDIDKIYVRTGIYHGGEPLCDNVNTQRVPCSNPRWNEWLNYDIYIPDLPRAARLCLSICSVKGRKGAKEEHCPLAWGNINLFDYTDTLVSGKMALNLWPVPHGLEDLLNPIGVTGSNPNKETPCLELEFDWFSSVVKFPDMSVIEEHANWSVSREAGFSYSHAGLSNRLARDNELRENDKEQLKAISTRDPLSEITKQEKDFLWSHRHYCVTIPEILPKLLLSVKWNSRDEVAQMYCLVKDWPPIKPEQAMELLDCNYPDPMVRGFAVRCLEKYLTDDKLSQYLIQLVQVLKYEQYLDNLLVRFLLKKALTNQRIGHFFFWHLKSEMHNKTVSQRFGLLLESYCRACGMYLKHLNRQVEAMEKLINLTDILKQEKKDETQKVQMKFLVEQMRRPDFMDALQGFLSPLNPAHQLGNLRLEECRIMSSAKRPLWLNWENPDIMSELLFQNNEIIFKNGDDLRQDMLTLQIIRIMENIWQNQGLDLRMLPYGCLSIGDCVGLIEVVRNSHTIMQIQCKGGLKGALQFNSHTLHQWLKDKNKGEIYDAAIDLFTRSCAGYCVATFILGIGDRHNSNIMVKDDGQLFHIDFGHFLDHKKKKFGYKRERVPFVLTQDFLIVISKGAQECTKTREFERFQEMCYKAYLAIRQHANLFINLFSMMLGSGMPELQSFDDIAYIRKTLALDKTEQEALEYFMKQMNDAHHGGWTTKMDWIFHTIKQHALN
Assay [10] deals with FLT3 (human), P36888 [K663Q].
The subject of assay [11] is KIT (human), P10721 [V559D].
In assay [12] the test system is PIK3CA (human), P42336 [I800L].
PIK3CA (human), P42336 [I800L], sequence (P42336 whole entry I800L, looked up): as the sequence (P42336 whole entry E545K, looked up) above, with K545E, I800L counted along it
Assay [13] relates to EGFR (human), P00533 [L861Q].
For assay [14], the system named is PIK3CA (human), P42336 [Q546K].
PIK3CA (human), P42336 [Q546K], sequence (P42336 whole entry Q546K, looked up): as the sequence (P42336 whole entry E545K, looked up) above, with K545E, Q546K counted along it
Assay [15] concerns PIK3CA (human), P42336 [H1047Y].
PIK3CA (human), P42336 [H1047Y], sequence (P42336 whole entry H1047Y, looked up): as the sequence (P42336 whole entry E545K, looked up) above, with K545E, H1047Y counted along it
Assay [16] deals with ABL1 (human), P00519 [E255K].
The test system of assay [17] is FLT3 (human), P36888 [N841I].
Assay [18] has as its system EGFR (human), P00533 [746-750 del].
In assay [19] the test system is EGFR (human), P00533 [P753S; 747-752 del].

Drawing on the kinase profiling compilation of Christmann-Franck et al. (2016), this text covers kinase still bound, per cent of control for 7 molecules.

PIK3CA (human), P42336 [C420R], sequence (P42336 whole entry C420R, looked up): as the sequence (P42336 whole entry E545K, looked up) above, with C420R, K545E counted along it
KIT (human), P10721 [V559D], sequence (P10721 whole entry V559D, looked up): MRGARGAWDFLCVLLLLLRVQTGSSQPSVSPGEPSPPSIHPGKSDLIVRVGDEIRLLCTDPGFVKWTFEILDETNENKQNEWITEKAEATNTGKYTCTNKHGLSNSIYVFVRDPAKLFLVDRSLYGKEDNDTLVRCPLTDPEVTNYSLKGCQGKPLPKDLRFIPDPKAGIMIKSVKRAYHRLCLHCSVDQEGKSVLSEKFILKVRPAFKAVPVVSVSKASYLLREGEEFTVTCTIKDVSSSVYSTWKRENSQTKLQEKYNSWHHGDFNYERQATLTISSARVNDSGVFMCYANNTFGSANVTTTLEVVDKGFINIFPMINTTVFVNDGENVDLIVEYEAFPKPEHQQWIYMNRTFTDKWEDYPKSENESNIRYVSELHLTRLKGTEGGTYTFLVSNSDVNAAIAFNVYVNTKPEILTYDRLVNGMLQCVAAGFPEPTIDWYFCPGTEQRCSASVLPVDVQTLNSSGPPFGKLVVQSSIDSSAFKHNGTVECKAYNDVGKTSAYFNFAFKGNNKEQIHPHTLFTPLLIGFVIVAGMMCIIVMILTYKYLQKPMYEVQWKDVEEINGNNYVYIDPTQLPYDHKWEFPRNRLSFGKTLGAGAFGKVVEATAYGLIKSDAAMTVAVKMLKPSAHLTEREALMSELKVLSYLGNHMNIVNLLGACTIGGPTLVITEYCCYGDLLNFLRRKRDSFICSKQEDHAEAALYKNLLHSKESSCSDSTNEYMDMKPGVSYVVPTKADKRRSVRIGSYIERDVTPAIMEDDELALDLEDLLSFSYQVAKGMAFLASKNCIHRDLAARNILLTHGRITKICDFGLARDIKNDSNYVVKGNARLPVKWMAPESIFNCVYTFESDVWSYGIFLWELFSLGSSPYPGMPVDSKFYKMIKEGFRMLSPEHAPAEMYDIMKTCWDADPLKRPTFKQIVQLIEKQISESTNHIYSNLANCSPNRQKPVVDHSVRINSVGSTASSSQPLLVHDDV
KIT (human), P10721 [V559D/T670I], sequence (P10721 whole entry V559D/T670I, looked up): as the sequence (P10721 whole entry V559D, looked up) above, with T670I counted along it
EIF2AK4 KD2 (human), Q9P2K8 [S808G], sequence (Q9P2K8 whole entry S808G, looked up): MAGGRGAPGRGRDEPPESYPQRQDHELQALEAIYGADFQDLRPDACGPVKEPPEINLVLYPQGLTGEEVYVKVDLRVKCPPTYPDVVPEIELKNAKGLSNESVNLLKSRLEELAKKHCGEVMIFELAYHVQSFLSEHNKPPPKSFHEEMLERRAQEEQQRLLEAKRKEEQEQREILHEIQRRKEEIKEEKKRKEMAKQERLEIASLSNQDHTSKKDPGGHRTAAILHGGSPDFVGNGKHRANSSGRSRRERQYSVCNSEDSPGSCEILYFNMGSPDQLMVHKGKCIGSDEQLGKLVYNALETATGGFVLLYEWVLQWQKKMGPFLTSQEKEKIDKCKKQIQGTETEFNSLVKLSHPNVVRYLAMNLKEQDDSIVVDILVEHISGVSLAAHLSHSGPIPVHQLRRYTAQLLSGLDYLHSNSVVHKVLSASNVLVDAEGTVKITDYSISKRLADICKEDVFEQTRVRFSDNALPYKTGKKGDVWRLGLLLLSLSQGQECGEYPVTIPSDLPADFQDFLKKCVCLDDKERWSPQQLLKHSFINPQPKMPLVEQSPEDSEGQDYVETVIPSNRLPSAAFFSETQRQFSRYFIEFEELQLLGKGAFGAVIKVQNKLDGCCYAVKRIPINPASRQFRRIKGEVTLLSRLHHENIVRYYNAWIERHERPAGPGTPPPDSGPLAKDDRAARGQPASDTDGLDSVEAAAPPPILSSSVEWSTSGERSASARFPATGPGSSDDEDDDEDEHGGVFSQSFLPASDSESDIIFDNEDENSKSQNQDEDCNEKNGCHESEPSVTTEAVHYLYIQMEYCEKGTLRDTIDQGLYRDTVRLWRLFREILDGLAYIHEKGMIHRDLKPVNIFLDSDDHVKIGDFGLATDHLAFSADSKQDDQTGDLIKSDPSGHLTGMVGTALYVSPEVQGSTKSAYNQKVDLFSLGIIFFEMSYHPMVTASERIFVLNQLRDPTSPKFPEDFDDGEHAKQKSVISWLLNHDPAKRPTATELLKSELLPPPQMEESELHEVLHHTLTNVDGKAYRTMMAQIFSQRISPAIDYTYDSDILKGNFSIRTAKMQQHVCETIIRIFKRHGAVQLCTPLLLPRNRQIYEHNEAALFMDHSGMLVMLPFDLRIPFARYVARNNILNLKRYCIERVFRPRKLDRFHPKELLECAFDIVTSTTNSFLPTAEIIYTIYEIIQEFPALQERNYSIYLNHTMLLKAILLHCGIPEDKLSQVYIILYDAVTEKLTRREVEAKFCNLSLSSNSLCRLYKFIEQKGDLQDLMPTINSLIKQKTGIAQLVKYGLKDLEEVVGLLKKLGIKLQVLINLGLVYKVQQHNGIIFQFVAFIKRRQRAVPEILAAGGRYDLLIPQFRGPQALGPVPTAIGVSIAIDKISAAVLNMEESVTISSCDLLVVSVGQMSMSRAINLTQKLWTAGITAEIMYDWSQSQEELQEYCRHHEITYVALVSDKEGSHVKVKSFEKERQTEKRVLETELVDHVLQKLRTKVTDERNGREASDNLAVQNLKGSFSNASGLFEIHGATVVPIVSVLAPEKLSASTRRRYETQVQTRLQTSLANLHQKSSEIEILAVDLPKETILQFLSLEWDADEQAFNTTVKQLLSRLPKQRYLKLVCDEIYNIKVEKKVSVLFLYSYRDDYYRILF
PIK3CA (human), P42336 [E545A], sequence (P42336 whole entry E545A, looked up): as the sequence (P42336 whole entry E545K, looked up) above, with K545A counted along it
KIT (human), P10721 [D816V], sequence (P10721 whole entry D816V, looked up): as the sequence (P10721 whole entry V559D, looked up) above, with D559V, D816V counted along it

As to `O=c1cc(N2CCOCC2)oc2c(-c3cccc4c3sc3ccccc34)cccc12`, the kinase still bound, per cent of control in assay [1] worked out at 100%; in assay [2], 100%; in assay [3], 100%; in [4], 100%; in [5] it was 58%; in assay [6] it was 8.2%. For the same molecule, the kinase still bound, per cent of control was determined as 93% in assay [7]; 19% in assay [8]; 24% in assay [9]; 86% in assay [10]; 80% in [11]; 2.2% in assay [12]. Moreover, the kinase still bound, per cent of control is 100% in [13]; 16% in [14]; 11% in [15]; 100% in assay [16]; 100% in assay [17]; 69% in assay [18]. This molecule had a kinase still bound, per cent of control in [19] of 90%.

Consider `CCCS(=O)(=O)Nc1ccc(F)c(C(=O)c2c[nH]c3ncc(Cl)cc23)c1F`, for which the kinase still bound, per cent of control was determined as 0.95% in assay [1]; 72% in [2]; 46% in [3]; 46% in [4]; 49% in [5]; 92% in assay [6]. In addition, the kinase still bound, per cent of control in assay [7] stood at 68%; in assay [8] it was 100%; in assay [9] it was 100%; in assay [10], 17%; in assay [11] it was 0.05%; in assay [12], 91%. The kinase still bound, per cent of control in assay [13] was 34%; in assay [14], 86%; in assay [15], 90%; in assay [16], 46%; in [17] it was 28%; in assay [18] it was 93%. In assay [19], this molecule registered a kinase still bound, per cent of control of 85%.

`COc1cc(C(=O)N2CCC(N3CCN(C)CC3)CC2)ccc1Nc1ncc2c(n1)N(C)c1ccccc1C(=O)N2C`: the kinase still bound, per cent of control is 95% in [1]; 86% in assay [2]; 81% in assay [3]; 94% in assay [4]; 72% in assay [5]; 98% in assay [6]. The kinase still bound, per cent of control in [7] was found to be 100%; in [8], 89%; in assay [9], 100%; in assay [10], 97%; in [11] it was 100%; in assay [12], 38%. Besides, the kinase still bound, per cent of control in assay [13] was 100%; in [14] it was 91%; in assay [15], 71%; in assay [16] it was 80%; in [17] it was 73%; in assay [18], 72%. This molecule came in with a kinase still bound, per cent of control in [19] of 84%.

In the case of `C=CC(=O)Nc1cc(-n2c(=O)ccc3cnc4ccc(-c5cn[nH]c5)cc4c32)ccc1C`, the kinase still bound, per cent of control in [1] amounted to 100%; in assay [2], 79%; in assay [3], 96%; in [4], 64%; in assay [5] it was 5.8%; in assay [6], 23%. In addition, the kinase still bound, per cent of control in assay [7] turned out to be 2.4%; in assay [8], 18%; in assay [9], 21%; in assay [10] it was 18%; in assay [11], 66%; in assay [12], 0.45%. Moreover, the kinase still bound, per cent of control in assay [13] was 22%; in assay [14], 21%; in assay [15], 13%; in [16], 39%; in assay [17] it was 1.6%; in assay [18] it was 58%. The kinase still bound, per cent of control in assay [19] was determined as 53%.

Regarding `C=CC(=O)Nc1ccc(C(=O)c2sc(Nc3ccc(N4CCN(C)CC4)cc3OC)nc2N)cc1`, the kinase still bound, per cent of control stood at 83% in assay [1]; 52% in [2]; 59% in assay [3]; 82% in [4]; 67% in assay [5]; 93% in [6]. Besides, the kinase still bound, per cent of control in assay [7] was determined as 73%; in assay [8], 83%; in [9] it was 93%; in [10], 64%; in assay [11] it was 69%; in assay [12] it was 83%. Moreover, the kinase still bound, per cent of control stood at 51% in [13]; 100% in [14]; 88% in assay [15]; 81% in [16]; 37% in assay [17]; 77% in [18]. In assay [19], the kinase still bound, per cent of control amounted to 81%.

Take `O=C(Nc1cccc(Nc2ncc(Br)c(NCCc3cnc[nH]3)n2)c1)N1CCCC1`: the kinase still bound, per cent of control in assay [1] came out at 0.7%; in assay [2] it was 51%; in [3] it was 2.3%; in [4] it was 0.5%; in assay [5] it was 0.15%; in assay [6], 94%. Also, the kinase still bound, per cent of control was found to be 0% in [7]; 81% in assay [8]; 100% in assay [9]; 0.1% in assay [10]; 0.05% in [11]; 100% in [12]. The kinase still bound, per cent of control in [13] was found to be 75%; in [14] it was 46%; in assay [15] it was 62%; in assay [16], 0.15%; in assay [17] it was 0%; in [18] it was 62%. Further, the kinase still bound, per cent of control in [19] turned out to be 63%.

Consider `N#Cc1cc(-c2ccnc(Nc3ccc(-n4cnc(-c5cccnc5)n4)cc3)n2)cc(N2CCOCC2)c1`, for which the kinase still bound, per cent of control in assay [1] came to 3.3%; in assay [2] it was 94%; in assay [3], 4.2%; in assay [4], 69%; in [5] it was 5.3%; in assay [6], 58%. The kinase still bound, per cent of control was determined as 28% in [7]; 100% in [8]; 100% in assay [9]; 17% in [10]; 1% in assay [11]; 64% in assay [12]. Besides, the kinase still bound, per cent of control is 92% in [13]; 75% in assay [14]; 100% in [15]; 75% in [16]; 12% in assay [17]; 67% in assay [18]. The molecule also registered a kinase still bound, per cent of control in assay [19] of 76%.
